Experimental data as given in ChEMBL document CHEMBL6096738, “Optimization of Single Relaxin B-Chain Peptide Leads to the Identification of R2R01, a Potent, Long-Acting RXFP1 Agonist for Cardiovascular and Renal Diseases” (J Med Chem, 2025).
Starred links: 1 amine or outer side, 2 acyl side, 3 side chain; linkers in the order of their positions; H or OH if unused. Non-standard residues stand in square brackets, D forms with d. Residues, ends and D or L forms follow the SMILES beside them. Groups on a side chain read outwards from the residue. *: point of attachment. X2 = CCCCCCCCCCCCCCCC(=O)N[C@@H](CCC(=O)N[C@@H](CCC(=O)N[C@@H](CCC(=O)NCCCOCCOCCOCCCNC(=O)CCC(=O)NCCCOCCOCCOCCCNC(=O)CCC(=O)NCCCOCCOCCOCCCN*)C(=O)O)C(=O)O)C(=O)O; PEG12 = NCCOCCOCCOCCOCCOCCOCCOCCOCCOCCOCCOCCOCCC(=O)O; γGlu = O=C(O)[C@H](CCC(=O)[*:2])N[*:1]; Palmitoyl = CCCCCCCCCCCCCCCC(=O)*; Suc = O=C(CCC(=O)[*:2])[*:1]; αMeK = C[C@](N)(CCCCN)C(=O)O; Nle = CCCC[C@H](N)C(=O)O; AEEA = NCCOCCOCC(=O)O; Aib = CC(C)(N)C(=O)O

Assays:
[1] = biological target: T1, Relaxin receptor 1 (Homo sapiens, UniProt Q9HBX9); test: Agonist activity at human RXFP1 expressed in human OVCAR-5 cells assessed as intracellular cAMP accumulation incubated for 30 mins by HTRF assay; format: functional, cell-based
T1 sequence (Q9HBX9 whole entry): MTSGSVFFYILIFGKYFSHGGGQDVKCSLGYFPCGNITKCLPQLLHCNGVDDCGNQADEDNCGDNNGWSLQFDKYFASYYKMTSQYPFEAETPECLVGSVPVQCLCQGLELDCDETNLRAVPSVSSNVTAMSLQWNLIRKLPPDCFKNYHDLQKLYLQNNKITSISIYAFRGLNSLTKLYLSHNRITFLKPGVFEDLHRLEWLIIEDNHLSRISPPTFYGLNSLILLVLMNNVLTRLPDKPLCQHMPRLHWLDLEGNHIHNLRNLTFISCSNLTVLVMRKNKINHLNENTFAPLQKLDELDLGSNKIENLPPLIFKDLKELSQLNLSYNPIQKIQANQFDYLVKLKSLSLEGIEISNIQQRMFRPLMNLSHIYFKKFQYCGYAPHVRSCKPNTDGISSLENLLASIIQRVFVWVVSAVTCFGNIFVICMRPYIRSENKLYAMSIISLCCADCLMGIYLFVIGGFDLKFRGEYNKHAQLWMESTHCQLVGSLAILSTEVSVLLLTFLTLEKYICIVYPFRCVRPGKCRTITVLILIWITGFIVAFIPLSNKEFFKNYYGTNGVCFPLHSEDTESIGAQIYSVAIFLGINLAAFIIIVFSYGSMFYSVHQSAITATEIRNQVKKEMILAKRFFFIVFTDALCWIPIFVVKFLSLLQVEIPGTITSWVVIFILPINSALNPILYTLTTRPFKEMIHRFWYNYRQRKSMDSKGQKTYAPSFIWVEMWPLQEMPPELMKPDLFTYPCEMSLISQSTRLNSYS

[2] = biological target: T2, Relaxin receptor 1 (Homo sapiens) (UniProt Q9HBX9); test: Agonist activity at human RXFP1 expressed in human OVCAR-5 cells assessed as intracellular cAMP accumulation by measuring maximal efficacy incubated for 30 mins by HTRF assay relative to control; format: functional, cell-based; conditions: filed as agonist
T2 sequence (whole entry): T1 sequence (Q9HBX9 whole entry)

[3] = biological target: T1, Relaxin receptor 1; test: Agonist activity at human RXFP1 expressed in 2%HSA treated human OVCAR-5 cells assessed as intracellular cAMP accumulation incubated for 30 mins with 2% HSA pretreated compound by HTRF assay; format: functional, cell-based
[4] = biological target: T2, Relaxin receptor 1 (Homo sapiens); test: Agonist activity at human RXFP1 expressed in 2%HSA treated human OVCAR-5 cells assessed as intracellular cAMP accumulation by measuring maximal efficacy incubated for 30 mins with 2% HSA pretreated compound by HTRF assay relative to control; format: functional, cell-based; conditions: filed as agonist
[5] = Induction of mast cell degranulation in human LAD2 cells assessed as beta-hexosaminidase release by measuring 4-methylumbelliferyl N-acetyl-beta-D-glucosaminide hydrolysis incubated for 30 mins by plate reader analysis; format: toxicity, cell-based; conditions: probe 4-methylumbelliferyl N-acetyl-beta-D-glucosaminide
[6] = Induction of mast cell degranulation in human LAD2 cells assessed as beta-hexosaminidase release by measuring maximal efficacy of 4-methylumbelliferyl N-acetyl-beta-D-glucosaminide hydrolysis at 33 uM incubated for 30 mins by plate reader analysis relative to control; format: toxicity, cell-based; conditions: probe 4-methylumbelliferyl N-acetyl-beta-D-glucosaminide
[7] = Half-life in male Sprague-Dawley rat at 1 mg/kg, iv measured after 198 hrs by LC-HRMS analysis; format: ADME, organism-based; conditions: in vivo

Row | SMILES | EC50 [1] [nM] | Emax [2] [%] | EC50 [3] [nM] | Emax [4] [%] | EC50 at 30 min [5] [nM] | Emax at 0.5 h, 33 µM [6] [%] | half-life [7] [h]
1 | CCCCCCCCCCCCCCCC(=O)N[C@@H](CCC(=O)N[C@@H](CCC(=O)N[C@@H](CCC(=O)NCCCOCCOCCOCCCNC(=O)CCC(=O)NCCCOCCOCCOCCCNC(=O)CCC(=O)NCCCOCCOCCOCCCNC(=O)CCC(=O)NCCCC[C@H](NC(=O)[C@@H](NC(=O)[C@H](CCCCNC(C)=O)NC(=O)[C@H](C)NC(=O)[C@H](CCCNC(=N)N)NC(=O)[C@@H](NC(=O)[C@H](CCCCN)NC(=O)[C@H](CCC(=O)O)NC(=O)[C@H](CCCNC(=N)N)NC(=O)CNC(=O)[C@H](CCC(=O)O)NC(=O)[C@H](CC(C)C)NC(C)=O)C(C)C)[C@@H](C)CC)C(=O)NC(C)(C)C(=O)N[C@@H](CCC(=O)O)C(=O)NCC(=O)N[C@@H](CCCC)C(=O)N[C@@H](CO)C(=O)N[C@H](C(=O)N[C@@H](Cc1ccccc1)C(=O)N[C@@H](CO)C(=O)N[C@@](C)(CCCCN)C(=O)N[C@@H](CCCNC(=N)N)C(=O)N[C@@H](C)C(=O)N[C@@H](CCCCNC(C)=O)C(N)=O)[C@@H](C)O)C(=O)O)C(=O)O)C(=O)O (Ac-LEGREKVRAK(Ac)IK([Suc-X2])[Aib]EG[Nle]STFS[αMeK]RAK(Ac)-NH2) | 0.43 | 91 | 31.7 | 89 |  |  | 
2 | CCCCCCCCCCCCCCCC(=O)N[C@@H](CCC(=O)N[C@@H](CCC(=O)N[C@@H](CCC(=O)NCCCOCCOCCOCCCNC(=O)CCC(=O)NCCCOCCOCCOCCCNC(=O)CCC(=O)NCCCOCCOCCOCCCNC(=O)CCC(=O)NCCCC[C@H](NC(=O)CNC(=O)[C@H](CCC(=O)O)NC(=O)C(C)(C)NC(=O)C(C)(C)NC(=O)[C@@H](NC(=O)[C@H](CCCCNC(C)=O)NC(=O)[C@H](C)NC(=O)[C@H](CCCNC(=N)N)NC(=O)[C@@H](NC(=O)[C@H](CCCCN)NC(=O)[C@H](CCC(=O)O)NC(=O)[C@H](CCCNC(=N)N)NC(=O)CNC(=O)[C@H](CCC(=O)O)NC(=O)[C@H](CC(C)C)NC(C)=O)C(C)C)[C@@H](C)CC)C(=O)N[C@@H](CO)C(=O)N[C@H](C(=O)N[C@@H](Cc1c[nH]c2ccccc12)C(=O)N[C@@H](CO)C(=O)NC(C)(C)C(=O)N[C@@H](CCCNC(=N)N)C(=O)N[C@@H](CCCCN)C(=O)N[C@@H](CCCCNC(C)=O)C(N)=O)[C@@H](C)O)C(=O)O)C(=O)O)C(=O)O (Ac-LEGREKVRAK(Ac)I[Aib][Aib]EGK([Suc-X2])STWS[Aib]RKK(Ac)-NH2) | 1.35 | 98 | 105 | 90 | 5900 | 67.5 | 
3 | CCCCCCCCCCCCCCCC(=O)N[C@@H](CCC(=O)N[C@@H](CCC(=O)N[C@@H](CCC(=O)NCCOCCOCC(=O)NCCOCCOCC(=O)NCCOCCOCC(=O)NCCOCCOCC(=O)NCCCC[C@H](NC(=O)[C@H](CCCCNC(C)=O)NC(=O)[C@H](C)NC(=O)[C@H](CCCNC(=N)N)NC(=O)[C@](C)(CCCCN)NC(=O)[C@H](CO)NC(=O)[C@H](Cc1ccccc1)NC(=O)[C@@H](NC(=O)[C@H](CO)NC(=O)[C@H](CCCC)NC(=O)CNC(=O)[C@H](CCC(=O)O)NC(=O)C(C)(C)NC(=O)C(C)(C)NC(=O)[C@@H](NC(=O)[C@H](CCCCNC(C)=O)NC(=O)[C@H](C)NC(=O)[C@H](CCCNC(=N)N)NC(=O)[C@@H](NC(=O)[C@H](CCCCN)NC(=O)[C@H](CCC(=O)O)NC(=O)[C@H](CCCNC(=N)N)NC(=O)CNC(=O)[C@H](CCC(=O)O)NC(=O)[C@H](CC(C)C)NC(C)=O)C(C)C)[C@@H](C)CC)[C@@H](C)O)C(N)=O)C(=O)O)C(=O)O)C(=O)O (Ac-LEGREKVRAK(Ac)I[Aib][Aib]EG[Nle]STFS[αMeK]RAK(Ac)K([AEEA-AEEA-AEEA-AEEA-γGlu-γGlu-γGlu-Palmitoyl])-NH2) | 0.27 | 89 | 20.1 | 96 | 3000 | 58 | 7.3
4 | CCCCCCCCCCCCCCCC(=O)N[C@@H](CCC(=O)N[C@@H](CCC(=O)N[C@@H](CCC(=O)NCCCC[C@H](NC(=O)COCCOCCNC(=O)COCCOCCNC(=O)COCCOCCNC(=O)[C@H](CCCCNC(C)=O)NC(=O)[C@H](CCCCN)NC(=O)[C@H](CCCNC(=N)N)NC(=O)C(C)(C)NC(=O)[C@H](CO)NC(=O)[C@H](Cc1c[nH]c2ccccc12)NC(=O)[C@@H](NC(=O)[C@H](CO)NC(=O)[C@H](CCCC)NC(=O)CNC(=O)[C@H](CCC(=O)O)NC(=O)C(C)(C)NC(=O)C(C)(C)NC(=O)[C@@H](NC(=O)[C@H](CCCCNC(C)=O)NC(=O)[C@H](C)NC(=O)[C@H](CCCNC(=N)N)NC(=O)[C@@H](NC(=O)[C@H](CCCCN)NC(=O)[C@H](CCC(=O)O)NC(=O)[C@H](CCCNC(=N)N)NC(=O)CNC(=O)[C@H](CCC(=O)O)NC(=O)[C@H](CC(C)C)NC(C)=O)C(C)C)[C@@H](C)CC)[C@@H](C)O)C(N)=O)C(=O)O)C(=O)O)C(=O)O (Ac-LEGREKVRAK(Ac)I[Aib][Aib]EG[Nle]STWS[Aib]RKK(Ac)[AEEA][AEEA][AEEA]K([γGlu-γGlu-γGlu-Palmitoyl])-NH2) | 1.6 | 91 | 77 | 80 |  |  | 
5 | CCCCCCCCCCCCCCCC(=O)N[C@@H](CCC(=O)N[C@@H](CCC(=O)N[C@@H](CCC(=O)NCCCOCCOCCOCCCNC(=O)CCC(=O)NCCCOCCOCCOCCCNC(=O)CCC(=O)NCCCOCCOCCOCCCNC(=O)CCC(=O)NCCCC[C@H](NC(=O)[C@H](C)NC(=O)[C@H](CCCNC(=N)N)NC(=O)[C@@H](NC(=O)[C@H](CCCCN)NC(=O)[C@H](CCC(=O)O)NC(=O)[C@H](CCCNC(=N)N)NC(=O)CNC(=O)[C@H](CCC(=O)O)NC(=O)[C@H](CC(C)C)NC(C)=O)C(C)C)C(=O)N[C@H](C(=O)NC(C)(C)C(=O)NC(C)(C)C(=O)N[C@@H](CCC(=O)O)C(=O)NCC(=O)N[C@@H](CCC(N)=O)C(=O)N[C@@H](CO)C(=O)N[C@H](C(=O)N[C@@H](Cc1ccccc1)C(=O)N[C@@H](CO)C(=O)N[C@@](C)(CCCCN)C(=O)N[C@@H](CCCNC(=N)N)C(=O)N[C@@H](C)C(=O)N[C@@H](CCCCNC(C)=O)C(N)=O)[C@@H](C)O)[C@@H](C)CC)C(=O)O)C(=O)O)C(=O)O (Ac-LEGREKVRAK([Suc-X2])I[Aib][Aib]EGQSTFS[αMeK]RAK(Ac)-NH2) | 0.06 | 95 | 19.4 | 94 |  |  | 11.5
6 | CCCCCCCCCCCCCCCC(=O)N[C@@H](CCC(=O)N[C@@H](CCC(=O)N[C@@H](CCC(=O)NCCCC[C@H](NC(=O)CCOCCOCCOCCOCCOCCOCCOCCOCCOCCOCCOCCOCCNC(=O)[C@H](CCCCNC(C)=O)NC(=O)[C@H](CCCCN)NC(=O)[C@H](CCCNC(=N)N)NC(=O)C(C)(C)NC(=O)[C@H](CO)NC(=O)[C@H](Cc1c[nH]c2ccccc12)NC(=O)[C@@H](NC(=O)[C@H](CO)NC(=O)[C@H](CCCC)NC(=O)CNC(=O)[C@H](CCC(=O)O)NC(=O)C(C)(C)NC(=O)C(C)(C)NC(=O)[C@@H](NC(=O)[C@H](CCCCNC(C)=O)NC(=O)C(C)(C)NC(=O)[C@H](CCCNC(=N)N)NC(=O)[C@@H](NC(=O)[C@H](CCCCN)NC(=O)[C@H](CCC(=O)O)NC(=O)[C@H](CCCNC(=N)N)NC(=O)CNC(=O)[C@H](CCC(=O)O)NC(=O)[C@H](CC(C)C)NC(C)=O)C(C)C)[C@@H](C)CC)[C@@H](C)O)C(N)=O)C(=O)O)C(=O)O)C(=O)O (Ac-LEGREKVR[Aib]K(Ac)I[Aib][Aib]EG[Nle]STWS[Aib]RKK(Ac)[PEG12]K([γGlu-γGlu-γGlu-Palmitoyl])-NH2) |  | 86 | 46 | 82 |  |  | 6.9
